Values after ≈ are worked out from the molar mass of the structure shown. Like-named read-outs stand apart in the source and are kept apart here.
Assays:
[1] = system: A. baumannii clinical isolates; experiment: Broth microdilution MIC, A. baumannii clinical isolates; format: cell-based, Acinetobacter baumannii; details: for MIC50: read-out: MIC50
Procedure: (§1) All isolates were randomly selected from the frozen culture collection of IHMA collected in 2018 and 2019. Matrix-assisted laser desorption ionization-time of flight mass spectrometry was used to confirm the identity of the organisms tested (Bruker Daltonics, Bremen, Germany).
(§2) MICs for all antimicrobial agents were determined at IHMA by broth microdilution in accordance with both CLSI ([17]) and EUCAST ([18]) guidelines. Microtiter panels were prepared by IHMA and stored at −70°C in cation-adjusted Mueller Hinton broth (CAMHB) (Becton Dickinson). Iron-depleted CAMHB was used to test cefiderocol. Panels containing ANT3310 were prepared fresh on the day of testing. […] MIC values corresponded to the first well with no visible growth. Quality control testing was performed on each day of testing with E. coli ATCC 25922, P. aeruginosa ATCC 27853, K. pneumoniae ATCC 700603 and BAA 1705, and A. baumannii NCTC 13304. MICs were interpreted using 2023 CLSI ([17]) and EUCAST ([18]) BPs.

[2] = system: carbapenem-resistant Acinetobacter baumannii (CRAB) clinical isolates; experiment: Broth microdilution MIC, CRAB isolates; format: cell-based; details: 2018 Global collection, CRAB (MEM MICs >4 µg/mL), N 363
Procedure: as §1, §2

[3] = system: KPC-producing Enterobacterales (KPC-CRE); experiment: organism not typed; format: cell-based
Procedure: as §1, §2

[4] = system: OXA-producing Enterobacterales (OXA-CRE); experiment: organism not typed; format: cell-based
Procedure: as §1, §2

[5] = system: A. baumannii ACC00445 (OXA-23); experiment: MIC against the isolate used in the infection models; format: cell-based; details: Acinetobacter baumannii
Procedure: as §2

[6] = molecular target: KPC-2 (Klebsiella pneumoniae, UniProt Q9F663); experiment: In vitro SBL inhibition assay (nitrocefin hydrolysis), IC50; format: biochemical
Procedure: (§3) Nitrocefin (Sigma-Aldrich, St Louis, MO, USA), a chromogenic cephalosporin antibiotic (λ, 482 nm; εM, 15,000 M^−1.cm^−1), was used as a reporter substrate at 100 µM for KPC-2, OXA-23, and OXA-48, at 200 µM for OXA-24 and OXA-51, and at 50 µM for OXA-58. Enzymes were preincubated in the presence of varying concentrations of each compound (0.006 to 3000 nM, diluted twofold in dimethyl sulfoxide (DMSO) for KPC-2, OXA-23, and OXA-48 assays and 0.51 to 10,000 nM diluted threefold in DMSO for OXA-24, OXA-51, and OXA-58) for 10 min at 30°C. Nitrocefin was then added and its hydrolysis by the uninhibited enzyme fraction was followed at an absorbance wavelength of 482 nm for 10 min at 30°C using Envision UV fluorescence plate reader (Perkin Elmer, Waltham, MA, USA). Hydrolysis rate data were used to determine inhibitory activities, expressed in IC50 values [corresponding to the compound concentration (µM) required to inhibit 50% of enzymatic reaction].

[7] = molecular target: OXA-23 (Acinetobacter baumannii, UniProt Q9L4P2); experiment: as above; format: biochemical; details: 10 min preincubation, 30°C, read-out: Enzyme IC50
Procedure: as §3

[8] = molecular target: OXA-24/40 (Acinetobacter baumannii, UniProt Q8RLA6); experiment: as above; format: biochemical; details: 10 min preincubation, 30°C, read-out: Enzyme IC50
Procedure: as §3

[9] = molecular target: OXA-48 (Klebsiella pneumoniae, UniProt Q6XEC0); experiment: as above; format: biochemical; details: 10 min preincubation, 30°C, read-out: Enzyme IC50
Procedure: as §3

[10] = molecular target: OXA-51 (Acinetobacter baumannii, UniProt Q5QT35); experiment: as above; format: biochemical, A. baumannii; details: 10 min preincubation, 30°C, read-out: Enzyme IC50
Procedure: as §3

[11] = molecular target: OXA-58 (Acinetobacter baumannii, UniProt Q2TR58); experiment: as above; format: biochemical, A. baumannii
Procedure: as §3

[12] = system: OXA- or KPC-Enterobacterales clinical isolates; experiment: Broth microdilution MIC, OXA- or KPC-positive Enterobacterales; format: cell-based
Procedure: as §1, §2

[13] = system: P. aeruginosa clinical isolates; experiment: Broth microdilution MIC, P. aeruginosa clinical isolates; format: cell-based, Pseudomonas aeruginosa; details: ANT3310 alone, P. aeruginosa N 502
Procedure: as §1, §2

[14] = system: Enterobacterales, P. aeruginosa and A. baumannii clinical isolates; experiment: Intrinsic antibacterial activity of ANT3310 alone, all 1,207 isolates; format: cell-based
Procedure: as §1, §2

[15] = 2018 Global collection, All A. baumannii, N 500
[16] = ANT3310 alone, A. baumannii N 405
[17] = ANT3310 alone, OXA- or KPC-Enterobacterales N 300

Sequence of OXA-51 (Q5QT35 entry or part of it): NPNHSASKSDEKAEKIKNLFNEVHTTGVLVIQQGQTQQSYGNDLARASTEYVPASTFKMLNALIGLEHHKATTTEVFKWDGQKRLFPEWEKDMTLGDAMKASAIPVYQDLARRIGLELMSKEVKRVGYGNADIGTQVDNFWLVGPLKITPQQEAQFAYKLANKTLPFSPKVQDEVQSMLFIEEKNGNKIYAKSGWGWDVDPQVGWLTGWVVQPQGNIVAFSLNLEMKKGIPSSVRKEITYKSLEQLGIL
Sequence of OXA-58 (Q2TR58 19-280): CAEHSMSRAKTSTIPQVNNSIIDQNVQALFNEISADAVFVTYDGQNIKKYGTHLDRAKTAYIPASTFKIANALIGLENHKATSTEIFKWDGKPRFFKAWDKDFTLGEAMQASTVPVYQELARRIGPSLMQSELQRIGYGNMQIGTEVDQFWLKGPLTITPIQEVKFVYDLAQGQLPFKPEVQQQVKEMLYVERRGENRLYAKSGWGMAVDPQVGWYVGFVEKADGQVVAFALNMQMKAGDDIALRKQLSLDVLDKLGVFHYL
Sequence of OXA-48 (Q6XEC0 23-265, looked up, species assumed): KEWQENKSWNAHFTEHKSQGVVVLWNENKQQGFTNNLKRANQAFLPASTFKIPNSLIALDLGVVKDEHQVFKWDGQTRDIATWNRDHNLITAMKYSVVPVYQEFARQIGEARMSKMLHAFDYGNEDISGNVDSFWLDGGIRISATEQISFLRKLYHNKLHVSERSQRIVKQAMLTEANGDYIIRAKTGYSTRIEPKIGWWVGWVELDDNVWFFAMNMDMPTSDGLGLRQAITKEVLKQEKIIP
Sequence of KPC-2 (Q9F663 25-293 limits assumed): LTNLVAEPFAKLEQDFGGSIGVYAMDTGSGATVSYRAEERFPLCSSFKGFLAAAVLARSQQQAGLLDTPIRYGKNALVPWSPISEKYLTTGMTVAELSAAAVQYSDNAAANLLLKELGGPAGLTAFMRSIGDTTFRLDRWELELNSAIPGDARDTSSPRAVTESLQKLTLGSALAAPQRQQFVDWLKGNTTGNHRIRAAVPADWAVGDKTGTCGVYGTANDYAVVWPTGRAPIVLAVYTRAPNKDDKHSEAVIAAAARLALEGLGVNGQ
Sequence of OXA-23 (Q9L4P2 18-273): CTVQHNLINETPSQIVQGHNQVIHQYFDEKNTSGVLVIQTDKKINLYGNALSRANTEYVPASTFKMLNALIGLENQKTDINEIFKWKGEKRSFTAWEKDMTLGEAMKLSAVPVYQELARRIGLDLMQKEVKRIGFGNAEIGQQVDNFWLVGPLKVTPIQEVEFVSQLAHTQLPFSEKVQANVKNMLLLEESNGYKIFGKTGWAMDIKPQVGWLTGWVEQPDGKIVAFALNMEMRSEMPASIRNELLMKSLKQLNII
Sequence of OXA-24/40 (Q8RLA6 22-275): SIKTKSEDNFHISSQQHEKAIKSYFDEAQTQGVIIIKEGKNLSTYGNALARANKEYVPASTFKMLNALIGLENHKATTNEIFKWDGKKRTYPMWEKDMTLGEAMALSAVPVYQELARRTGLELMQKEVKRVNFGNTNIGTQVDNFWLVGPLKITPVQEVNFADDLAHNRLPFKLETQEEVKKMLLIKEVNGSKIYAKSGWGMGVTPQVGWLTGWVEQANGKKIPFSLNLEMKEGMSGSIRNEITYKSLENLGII

With `CN(C)c1cc(NC(=O)CNC(C)(C)C)c(O)c2c1C[C@H]1C[C@H]3[C@H](N(C)C)C(O)=C(C(N)=O)C(=O)[C@@]3(O)C(O)=C1C2=O` [Tigecycline, tigecycline] the “Number of isolates inhibited at MIC of 0.25 µg/mL” value [1, 15] was 40, the “Number of isolates inhibited at MIC of 0.5 µg/mL” value [1, 15] was 41 and the “Number of isolates inhibited at MIC of 1 µg/mL” value [1, 15] was 76. For the same compound, the “Number of isolates inhibited at MIC of 2 µg/mL” value [1, 15] was 162, the “Number of isolates inhibited at MIC of 4 µg/mL” value [1, 15] was 140 and the “Number of isolates inhibited at MIC of 8 µg/mL” value [1, 15] was 31. The “Number of isolates inhibited at MIC of 16 µg/mL” value [1, 15] was 4, the “Number of isolates inhibited at MIC of ≤0.125 µg/mL” value [1, 15] was 6 and the MIC50 ([1]; Acinetobacter baumannii, 2018 Global collection, All A. baumannii, N 500) was 2 µg/mL (≈ 3.41 µM). For the same compound, the MIC90 ([1]; Acinetobacter baumannii, 2018 Global collection, All A. baumannii, N 500, read-out: MIC90) was 4 µg/mL (≈ 6.83 µM), the MIC90 ([1]; Acinetobacter baumannii, A. baumannii, one or both of the 2018/2019 collections, read-out: MIC90) was 4 µg/mL (≈ 6.83 µM) and the “Number of isolates inhibited at MIC of 0.5 µg/mL” value [2] was 7. For the same compound, the “Number of isolates inhibited at MIC of 1 µg/mL” value [2] was 48, the “Number of isolates inhibited at MIC of 2 µg/mL” value [2] was 146 and the “Number of isolates inhibited at MIC of 4 µg/mL” value [2] was 131. The “Number of isolates inhibited at MIC of 8 µg/mL” value [2] was 28, the “Number of isolates inhibited at MIC of 16 µg/mL” value [2] was 3 and the MIC50 ([2]; Acinetobacter baumannii, read-out: MIC50) was 2 µg/mL (≈ 3.41 µM). It also gave an MIC90 ([2]; Acinetobacter baumannii, read-out: MIC90) of 4 µg/mL (≈ 6.83 µM), an MIC50 [3] of 1 µg/mL (≈ 1.71 µM) and an MIC90 [3] of 4 µg/mL (≈ 6.83 µM). It also gave an MIC50 [4] of 2 µg/mL (≈ 3.41 µM), an MIC90 [4] of 4 µg/mL (≈ 6.83 µM) and an MIC [5] of 2 µg/mL (≈ 3.41 µM).
Compound `O=C1N2C[C@@H](CC[C@H]2F)N1OS(=O)(=O)O` [ANT3310] has an IC50 [6] of 19.5 nM, an IC50 [7] of 32.6 nM and an IC50 [8] of 602 nM. The IC50 [9] was 179 nM, the IC50 [10] was 542 nM and the IC50 [11] was 8 nM. The MIC90 [1, 16] was >64 µg/mL, the “Number of isolates inhibited at MIC of 4 µg/mL” value [1, 16] was 1 and the “Number of isolates inhibited at MIC of 8 µg/mL” value [1, 16] was 4. For the same compound, the “Number of isolates inhibited at MIC of 16 µg/mL” value [1, 16] was 1, the “Number of isolates inhibited at MIC of 32 µg/mL” value [1, 16] was 11 and the “Number of isolates inhibited at MIC of 64 µg/mL” value [1, 16] was 38. For the same compound, the “Number of isolates inhibited at MIC of >64 µg/mL” value [1, 16] was 350, the MIC50 ([1]; Acinetobacter baumannii, ANT3310 alone, A. baumannii N 405) was 64 µg/mL (≈ 266 µM) and the MIC90 ([1]; Acinetobacter baumannii, ANT3310 alone, A. baumannii N 405, read-out: MIC90) was > 64 µg/mL. For the same compound, the MIC50 [12] was > 64 µg/mL, the MIC90 [12] was > 64 µg/mL and the MIC50 [12, 17] was >64 µg/mL. For the same compound, the MIC90 [12, 17] was >64 µg/mL, the “Number of isolates inhibited at MIC of 8 µg/mL” value [12, 17] was 1 and the “Number of isolates inhibited at MIC of 32 µg/mL” value [12, 17] was 8. The “Number of isolates inhibited at MIC of 64 µg/mL” value [12, 17] was 234, the “Number of isolates inhibited at MIC of >64 µg/mL” value [12, 17] was 57 and the MIC50 [13] was >64 µg/mL. For the same compound, the MIC90 [13] was >64 µg/mL, the “Number of isolates inhibited at MIC of 16 µg/mL” value [13] was 2 and the “Number of isolates inhibited at MIC of 32 µg/mL” value [13] was 9. For the same compound, the “Number of isolates inhibited at MIC of 64 µg/mL” value [13] was 15, the “Number of isolates inhibited at MIC of >64 µg/mL” value [13] was 476 and the MIC50 ([13]; Pseudomonas aeruginosa, read-out: MIC50) was > 64 µg/mL. The MIC90 ([13]; Pseudomonas aeruginosa, read-out: MIC90) was > 64 µg/mL, the Intrinsic antibacterial activity ([14]; ANT3310 alone, 1,207 isolates) was “No clinically significant antibacterial activity” and the “Number of isolates with ANT3310 MICs ≤8 µg/mL” value ([14]; of the 1,207 isolates tested, ANT3310 alone) was 6.
